Data on twelve compounds can be found in publication PMC10119930, “Dual Molecules Targeting 5-HT6 and GABA-A Receptors as a New Approach to Combat Depression Associated with Neuroinflammation” (ACS Chemical Neuroscience, 2023).

Series [1] addresses T1, 5-HT6 receptor (Homo sapiens, UniProt P50406). As to the kind of experiment: Radioligand binding assay for 5-HT6 receptor ([3H]-LSD displacement). The following applies: competitive replacement of [3H]-LSD, ±S.E.M. Also on record: expressed in transfected cells; host or cells: HEK-293 (cryopreserved membranes). Here is the method: To determine the affinity for 5-HT6, the cryopreserved membranes from HEK-293 cells stably transfected with the human recombinant 5-HT6 receptor were used.[40] Preparation of the tested compounds included preparation of stock solutions in DMSO (1 mM) and subsequent serial dilutions (10^–10–10^–5 M) of tested compounds in the appropriate buffer (50 mM Tris buffer, pH 7.4, 10 mM MgCl2, 0.5 mM ethylenediaminetetraacetic acid). The serial dilutions were acquired directly on a 96-well microplate. The reaction mix included 50 μL of appropriate concentration of tested molecule, 50 μL of [^3H]LSD 2.5/2.0 nM, and 150 μL of diluted membranes. The microplate containing the reaction mix was protected with a sealing tape and incubated for 60 min at 37 °C. Quenching of the reaction mixtire included: rapid filtration through UniFilter 96 GF/B filter microplate and rapid washes using 200 μL 50 mM assay buffer and vacuum manifold and 96-well pipettor. The collected microplates were dried overnight at 37 °C. The UniFilter bottoms were sealed, and then 30 μL of Betaplate Scint liquid scintillator (PerkinElmer) was added to each well. […] The obtained data were fit to a one-site curve-fitting equation using Prism 5 software (GraphPad Software), and the Ki values were determined using the Cheng–Prusoff equation. Radioligand binding was performed in duplicates.

The target of series [2] is T1, 5-HT6 receptor. Kind of series: Functional assay for 5-HT6 receptor, antagonist mode (aequorin, CHO-K1 cells). The class given is cell-based. Set-up: expressed in transfected cells; host or cells: CHO-K1 (co-expressing mitochondrially targeted aequorin and G protein α16). The following applies: ±S.E.M., read-out: 5-HT6 R KB. The method, then: The studies were acquired according to previous protocols.[41] All the examined compounds (novel and the reference) were dissolved in DMSO (1 mM) and diluted accordingly using the assay buffer, directly in 96-well microplate. The recombinant CHO-K1 cells expressing human GPCR, mitochondrially targeted aequorin, and the promiscuous G protein α16 specific for 5-HT6 were used for the functional assay. The cells were thawed and suspended in the appropriate buffer containing DMEM/HAM’s F12 with 0.1% protease free BSA and were then centrifuged. After adding coelenterazine h to a final concentration of 5 μM, the cell pellet was resuspended in the buffer. The cell suspension was incubated at 16 °C for 16 h while being protected from light, gently shaken, and diluted with assay buffer to a concentration of 5000 cells/mL. Following that, 50 μL of the cell suspension was introduced to preloaded white opaque 96-well microplates containing the tested molecules. This was done using the automatic injectors integrated into the radiometric and luminescence plate counter MicroBeta2 LumiJET (PerkinElmer, USA). The light emission resulting from calcium mobilization was monitored for a duration of 60 s. For examination of the antagonistic properties of tested molecule, following 30 min of incubation, the reference agonist was administrated and the light emission was detected.

Series [3] addresses muscimol site of the GABA-A receptor. Kind of series: Radioligand binding assay for GABA-A receptor ([3H]muscimol displacement, rat brain homogenate). To be noted: competitive replacement of [3H]muscimol; ±S.E.M. Here is the method: The study was acquired according to the earlier protocols.[39] The rats’ brains were homogenized and prepared accurately according to the previous protocol.[39] On the day of the study, brain homogenates were thawed at room temperature and “diluted” in 20 volumes of ice-cold 50 mM Tris-HCl buffer (pH 7.4) and centrifuged (20.000g, 30 min, 0–4 °C). The assay was performed directly on 96-well microplates, which contained 50 mM Tris-HCl buffer (pH 7.4) in a total volume of 300 μL. Reaction mix included 240 μL of the brain tissue suspension, 30 μL of [^3H]-muscimol, and 30 μL solution of tested compounds (administrated at various concentrations: 10^–10–10^–5 M). […] The 96-well microplates containing the reaction mix were incubated for 10 min at 0 °C, followed by rapid filtration over glass fiber filters FilterMate B (PerkinElmer, USA) using the Harvester-96 MACH III FM (Tomtec, USA). The filter mats were dried using a microwave and then placed inside a plastic bag (PerkinElmer, USA). After that, they were soaked in 10 mL of Ultima Gold MV liquid scintillation cocktail (PerkinElmer, USA). […] Ki values were estimated according to the Cheng and Prusoff equation. The study was performed in duplicates. The statistical analysis was performed using (GraphPad Prism, version 4.0, San Diego, CA, USA).

In series [4] the test system is human α1β2γ2-GABA-A receptors. As to the kind of experiment: Electrophysiological studies, automated patch clamp (QPatch16X), HEK293 cells. The class given is cell-based. The following applies: agonist mode, compound at 10 μM; current amplitude normalized to 10 μM GABA response; ±S.E.M. Here is the method: Electrophysiological studies were acquired using the QPatch16X automatic patch clamp platform (Sophion Biosciences) as described before.[42],[43] […] Before the assay, cells were detached from the culture flask by treating them with TrypLE Express solution (Life Technologies) and subsequently suspended in serum-free media. The cells were loaded into a 1.5 mL microtube on the automated electrophysiology instrument, which subsequently performed a spin-down using its built-in centrifuge. Following this, the cells were washed with Ringer’s extracellular solution. The cells were moved to the pipetting wells of a 16-channel planar patch chip plate (QPlate 16X) designed for single-use. A combined suction/voltage protocol was then applied to establish gigaseals. […] During the entire whole-cell recording, the holding potential was maintained at −90 mV. […] The intracellular solution contained 140 mM CsF, 1 mM EGTA, 5 mM CsOH, 10 mM HEPES, 20 mMNaCl (pH 7.2, 320 mOsm). […] The acquired data were examined with QPatch assay software (v5.0, Sophion Biosciences)[44] and are represented as the mean of three separated measurements performed on distinct cells. The efficacy of the tested molecules was determined by calculating the baseline-corrected ratio of the maximum current amplitudes elicited by the tested compounds and the reference agonist (T1-ATG/AG1-ATG or T2-ATG/AG1-ATG). The raw current recordings were standardized and presented as a percentage of the current amplitude evoked by the reference agonist, using the QPatch assay software (v5.0, Sophion Biosciences).
(Patch clamp records ionic current or voltage across a cell membrane.)

Series [5] relates to female Wistar rats. Kind of series: Forced swim test in rats. It counts as in vivo, rat. The method, then: (§1) Naïve female Wistar rats (weighing 180–200 g) were used in the study. The animals were housed in groups of three to four in standard Makrolon cages (37 cm × 21 cm × 15 cm) under strictly controlled laboratory conditions (ambient temperature 21–24 °C, relative humidity 45–65%) with a 12/12 h light–dark regime (light on at 6:00 a.m. and off at 6:00 p.m.). Animals had unrestricted access to tap water and food (typical pellets). Prior the experiment the animals were randomly appointed to the group. The behavioral studies were accomplished between 8:00 a.m. and 5:00 p.m. with the researcher blind to the study. The experiments were performed according to protocols approved by the Local Ethical Committee in Krakow (Approval Number 147/2018), Poland. Housing and experimental procedures were conducted under the European Union Directive of September 22, 2010 (2010/63/EU) and Polish legislation regarding animal studies. All efforts were made to minimize animal suffering and the number of animals used in the study.
(§2) Vortioxetine (Sigma, Germany) and the tested compounds (16 and 6) were dissolved in 10% cyclodextrin and administered ip 30 min before the test or during 14 consecutive days, with the last injection 60 min before the test. 10% cyclodextrin was administrated to control group.
(§3) A modified forced swim test was carried out according to Detke et al.[50],[51] First, the animals were individually placed inside Plexiglas cylinders, which were 40 cm high and 18 cm in diameter, filled with water at a temperature of 23–25 °C for 15 min. Afterward, the rats were transferred to a Plexiglas box and kept under a 60 W bulb for 30 min to dry. The day after, exactly 24 h later, the rats were once again placed in the cylinder, and their duration of immobility, swimming, and climbing was observed and recorded during a 5 min. The swimming behavior involved energetic movements such as horizontal swimming around the cylinder, while climbing activity referred to upward movements of the forepaws along the swim chamber’s side. Immobility was recorded when the rat only made necessary movements to keep its head above the water. For each test, a fresh water was provided. Open field test in rats: The test was conducted as previously reported by our research group.[52] The test was performed in a darkened room employing the Motor Monitor System (Campden Instruments, Ltd., U.K.). The system was equipped with two SmartFrame Open Field stations, each measuring 40 cm × 40 cm × 38 cm and consisting of 16 × 16 beams. These stations were placed inside sound-attenuating chambers and connected to a PC software using […]. The animals, belonging to either the vehicle-injected or drug-injected group, were individually positioned at the center of the station. The Motor Monitor System, which was automated, recorded the animal’s ambulation in both the X and Y axes, as well as the number of rearing and peeping episodes. Additionally, the total distance traveled by each animal during the 5 min test period was also recorded. Statistical analysis: Results are presented as the mean ± SEM values. They were estimated using one-way analysis of variance (ANOVA), followed by Newman–Keuls post hoc or unpaired two-tailed Student t test. Statistical significance was considered when p < 0.05 for differences between groups.

The subject of series [6] is female Wistar rats. Kind of series: Open field test in rats (locomotor activity). The following applies: chronic treatment, dose 8, ip 14 days. The class given is in vivo, rat. Set-up: total distance traveled: unit not given here. The method, then:
as §1, §2, §3

Setting [7] is: acute, 8 mg/kg ip 30 min before test.

The structures appear in SMILES notation. Several values for one entry are separate records, joined by “and”; a condition that tells them apart may be missing. Equal entries are not always repeated. Where two headings read alike, the source gives them in different places.

A word on the Ki: it is the equilibrium dissociation constant of an inhibitor or competing ligand from its target. As a reminder, the Kb is the affinity of an antagonist, worked out from how it opposes an agonist.

T1 sequence (P50406 whole entry): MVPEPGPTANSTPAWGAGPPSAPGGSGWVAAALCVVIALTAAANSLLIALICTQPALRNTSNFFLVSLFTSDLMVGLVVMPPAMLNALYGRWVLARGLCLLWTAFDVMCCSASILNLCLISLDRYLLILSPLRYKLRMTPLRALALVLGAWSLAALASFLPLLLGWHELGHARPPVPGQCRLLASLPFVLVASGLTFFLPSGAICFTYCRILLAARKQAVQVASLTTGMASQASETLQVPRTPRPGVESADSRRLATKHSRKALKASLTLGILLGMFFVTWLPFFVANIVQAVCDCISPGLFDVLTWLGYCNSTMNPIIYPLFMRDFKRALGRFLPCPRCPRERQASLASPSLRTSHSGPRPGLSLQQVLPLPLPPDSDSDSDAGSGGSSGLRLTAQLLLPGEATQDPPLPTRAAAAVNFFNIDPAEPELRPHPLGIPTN

In turn, `O=c1[nH]c2c(N3CCNCC3)cccc2n1Cc1ccccc1` [Compound 2, 1-benzyl-4-(piperazin-1-yl)-1,3-dihydro-2H-benzo[d]imidazol-2-one] came in with a Ki on 5-HT6 receptor [1] (5-HT6R Ki) of 0.2 ± 0.02 nM.
For the compound `O=c1oc2c(N3CCNCC3)cccc2n1Cc1ccccc1` [Compound 3, 3-Benzyl-7-(piperazin-1-yl)benzo[d]oxazol-2(3H)-one], the affinity on 5-HT6 receptor [1] (5-HT6R Ki) corresponds to a Ki of 4 ± 0.2 nM.
Same read-out and setting: the same measure for `O=C1COc2c(N3CCNCC3)cccc2N1Cc1ccccc1` [Compound 4, 4-benzyl-8-(piperazin-1-yl)-2H-benzo[b][1,4]oxazin-3(4H)-one]: 1 ± 0.2 nM.
Same read-out and setting: in the case of `c1ccc(CN2CCOc3c(N4CCNCC4)cccc32)cc1` [Compound 5, 4-(4-Benzyl-3,4-dihydro-2H-benzo[b][1,4]oxazin-8-yl)piperazin-1-ium Chloride] it was 60 ± 7.5 nM.
As for `O=c1[nH]c2c(N3CCN(CCO)CC3)cccc2n1Cc1ccccc1` [Compound 7, 1-Benzyl-4-(4-(2-hydroxyethyl)piperazin-1-yl)-1,3-dihydro-2H-benzo[d]imidazol-2-one], the Ki on 5-HT6 receptor [1] (read-out: 5-HT6R Ki) amounted to 40 ± 3 nM.
The same measure, in the same setting: in the case of `O=c1oc2c(N3CCN(CCO)CC3)cccc2n1Cc1ccccc1` [Compound 8, 3-Benzyl-7-(4-(2-hydroxyethyl)piperazin-1-yl)benzo[d]oxazol-2(3H)-one] it was 150 ± 7.6 nM; in that of `O=C1COc2c(N3CCN(CCO)CC3)cccc2N1Cc1ccccc1` [Compound 9, 4-Benzyl-8-(4-(2-hydroxyethyl)piperazin-1-yl)-2H-benzo[b][1,4]oxazin-3(4H)-one], 4 ± 0.4 nM.
Turning to `OCCN1CCN(c2cccc3c2OCCN3Cc2ccccc2)CC1` [Compound 10, 2-(4-(4-Benzyl-3,4-dihydro-2H-benzo[b][1,4]oxazin-8-yl)piperazin-1-yl)ethan-1-ol], on 5-HT6 receptor [1] (read-out: 5-HT6R Ki), the Ki was determined as 24 ± 2 nM.
As to `NCCCC(=O)OCCN1CCN(c2cccc3c2[nH]c(=O)n3Cc2ccccc2)CC1` [Compound 17, 1-(2-((4-Ammoniobutanoyl)oxy)ethyl)-4-(1-benzyl-2-oxo-2,3-dihydro-1H-benzo[d]imidazol-4-yl)piperazin-1-ium Dichloride], at 5-HT6 receptor [2], the Kb was 193 ± 3.5 nM. The Ki was 57 ± 5.9 nM on 5-HT6 receptor [1] (read-out: 5-HT6R Ki) and 592 ± 52.5 nM in series [3].
With `Cl.Cl.NCCCC(=O)OCCN1CCN(c2cccc3c2oc(=O)n3Cc2ccccc2)CC1` [Compound 18, 1-(2-((4-Ammoniobutanoyl)oxy)ethyl)-4-(3-benzyl-2-oxo-2,3-dihydrobenzo[d]oxazol-7-yl)piperazin-1-ium Dichloride], the “[%] of 10 μM GABA activity” value in series [4] is 14.0% and 14.0 ± 2.6%. In addition, the Kb on 5-HT6 receptor [2] came to 245 ± 0.7 nM. Further, the Ki amounted to 130 ± 12 nM at 5-HT6 receptor [1] (read-out: 5-HT6R Ki) and 229 ± 28 nM in series [3].
As for `NCCCC(=O)OCCN1CCN(c2cccc3c2OCCN3Cc2ccccc2)CC1` [Compound 20, 1-(2-((4-Ammoniobutanoyl)oxy)ethyl)-4-(4-benzyl-3,4-dihydro-2H-benzo[b][1,4]oxazin-8-yl)piperazin-1-ium Dichloride], the Kb at 5-HT6 receptor [2] was determined as 1670 ± 1 nM. The Ki on 5-HT6 receptor [1] (read-out: 5-HT6R Ki) was found to be 1260 ± 82 nM; in series [3] it was 184 ± 4 nM.
On to `Cc1ccc(Sc2ccccc2N2CCNCC2)c(C)c1` [vortioxetine, Vortioxetine, reference compound], for which, in the series with female Wistar rats [5] (setting [7]), the climbing result is reported as “had no impact”, the “prolongation of swimming time” value is recorded as 88.1% and the “reduction of immobility time” value was 24.7%. Also, the “decrease of immobility time vs vehicle-treated group” value with female Wistar rats [5] (subchronic, 8 mg/kg ip for 14 days, test 60 min after last injection) was 19.5%. In addition, in the series on female Wistar rats [6], the X ambulation came to 260.1, the Y ambulation came out at 265.9, the rearing came to 50.6 and the total distance traveled was found to be 2753.
